# Key:
# [1] = tested on: mice with DSS-induced colitis; assay: DSS-induced colitis efficacy (colon length, body weight, colon damage); format: in vivo, C57BL/6 mice
# Experimental: To evaluate the anti-inflammatory action of the developed VCAM1-IRAK4 NC, mice were administered with 5% DSS in drinking water for 7 days and injected IV with the VCAM1-targeted nanocarriers loaded with IRAK4 inhibitor (23 mg kg^−1) on day 0, 2, 4, and 6 of DSS treatment initiation (Y. Lec, K. Sugihara, M. G. Gillilland, 3rd, S. Jon, N. Kamada, J. J. Moon, Nat. Mater. 2020, 19, 118). […] A healthy control group without DSS administration and a DSS-induced colitis group without the injection of VCAM1-IRAK4 NC were also prepared. […] Pharmacother. 2022, 153, 113459).
# In vivo evaluation of VCAM1-IRAK4 NC in mice with DSS-induced colitis. […] To evaluate the accumulation of VCAM1-targeted nanocarriers in inflamed tissue, the shaved mice with induced colitis were injected IV with SiNc-loaded IRAK4 NC and VCAM1-IRAK4 NC, and NIR fluorescence images of the excised colons and major organs were recorded 24 hours post-administration. The fluorescence images were obtained using a Pearl Impulse fluorescence imaging system (LI-COR, Lincoln, NE) and the mean fluorescence intensity of region of interest was obtained using Pearl Impulse Software (LI-COR, Lincoln, NE). […] Colon length without the cecum was measured, and colon tissues were gently washed with PBS. […] NucBlue™ Fixed Cell ReadyProbes™ Reagent (ThermoFisher Scientific, Waltham, MA, USA) was used to stain the nuclei. […]
# [2] = cited from earlier work
structure (smiles),measurement,setting,value
"CC[C@@H]1[C@H](F)C(=O)N[C@@H]1COc1nccc2cc(C(N)=O)c(OC)cc12 [PF-06650833, zimlovisertib]",average colon length,"[1]; free drug in 60% saline, 30% PEG400, 10% DMSO, 23 mg kg^−1, 4 IV injections, healthy 5.97±0.18, DSS saline 4.87±0.12 (FIG. 15A)",4.74±0.35 cm
same,therapeutic effect on colitis,"[1]; free drug, 23 mg kg^−1, 4 IV injections every 2 days",no noticeable therapeutic effect
same,absolute oral bioavailability,[2]; oral,low
same,dose-limiting side effects,[2]; two phase I clinical trials,no dose-limiting side effects were observed
same,tolerability,[2]; two phase I clinical trials,well tolerated

# Source: patent US20250073223A1, “TARGETED NANOCARRIERS FOR SYSTEMIC DELIVERY OF IRAK4 INHIBITORS TO INFLAMED TISSUES” (Oregon State University, priority 2023, published 2025)
